Results on two compounds are retold here after patent publication US20110020494A1, “GROWTH MEDIUM FOR LACTIC ACID BACTERIA” (priority 2007, published 2011).

For the assay, the system named is mesophilic culture of Lactococcus. The assay can be described thus: Growth of Lactococcus with formate and purine supplementation: pH of inoculated milk over time. To be noted: milk 1% fat, 32° C., inoculation 0.022%, IMP 10 ppm, NaF 5 ppm. It counts as cell-based. Here is the method: In these experiments, the growth of Lactococcus in the presence of supplemented formate and purine was investigated. Equal amounts of milk (pasteurized milk w/1% fat) were added to four 1 liter Pyrex bottles. The bottles were placed in the water bath at 32° C.
All bottles were inoculated with a mesophilic culture of Lactococcus (0.022%). When the milk reached 32° C., three of the four bottles were supplemented with Na formate and/or disodium-5′-inosinate (IMP), as shown below.
The initial pH of the milk was recorded. The pH in the bottles was measured every hour for the first two hours and then every half hour until a pH of around 4.6 was reached.
The pH of each of the bottles, as a function of time, is shown below, and graphed in FIG. 1.

Consider `O=C[O-].[Na+]` [NaF, sodium formate], for which the pH turned out to be 6.54 (time 0 hours (initial pH)); 6.48 (time 1 hour); 6.29 (time 2 hours); 6.03 (time 2.6 hours); 5.79 (time 3 hours); 5.51 (time 3.5 hours). Also, the pH by setting is: (time 4 hours) 5.26; (time 5.1 hours) 4.66; (time 5.6 hours) 4.54.
disodium-5′-inosinate [IMP]: the pH by setting is: (time 0 hours (initial pH)) 6.54; (time 1 hour) 6.48; (time 2 hours) 6.27; (time 2.6 hours) 5.98; (time 3 hours) 5.73; (time 3.5 hours) 5.42. The pH was determined as 5.17 (time 4 hours), 4.6 (time 5.1 hours) and 4.5 (time 5.6 hours).
